Experimental data reported in patent US20110306636A1, “OXAZOLE PYRIDINE DERIVATIVES USEFUL AS S1P1 RECEPTOR AGONISTS” (Merck Serono SA, priority 2009, published 2011).
Where a name gives a salt, the structure may show the parent alone. Read-outs that look alike come from different tables or passages of the source.

How the values were obtained:
[1] = target: T1, human S1P1 Receptor fused to the green fluorescent protein (EGFP) (Homo sapiens, UniProt P21453); experiment: Internalization of S1P1 in S1P1-U2OS cells by cell imaging analysis; assay type: cell-based; conditions: 1 hour incubation, 384-well
T1 construct: host or cells: U2OS (human bone osteosarcoma epithelial cells), CMV promoter, geneticin selection
T1 sequence (P21453 with tags, fused parts or gaps): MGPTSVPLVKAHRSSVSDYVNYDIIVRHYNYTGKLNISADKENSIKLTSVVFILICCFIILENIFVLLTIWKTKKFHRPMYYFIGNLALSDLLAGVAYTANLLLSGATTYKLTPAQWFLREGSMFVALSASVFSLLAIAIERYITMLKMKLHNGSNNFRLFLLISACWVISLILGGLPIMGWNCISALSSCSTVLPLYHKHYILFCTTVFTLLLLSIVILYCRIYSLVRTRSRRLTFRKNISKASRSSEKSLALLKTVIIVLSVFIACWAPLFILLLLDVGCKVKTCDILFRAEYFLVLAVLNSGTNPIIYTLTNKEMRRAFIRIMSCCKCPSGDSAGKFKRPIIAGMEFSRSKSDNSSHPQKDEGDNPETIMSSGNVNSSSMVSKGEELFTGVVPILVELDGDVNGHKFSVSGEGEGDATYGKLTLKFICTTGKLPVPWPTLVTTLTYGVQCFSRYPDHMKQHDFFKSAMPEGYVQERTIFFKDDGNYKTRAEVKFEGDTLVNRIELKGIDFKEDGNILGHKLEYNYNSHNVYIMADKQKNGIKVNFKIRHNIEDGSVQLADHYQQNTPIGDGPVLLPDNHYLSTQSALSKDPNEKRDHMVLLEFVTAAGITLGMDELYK
Method: Cellular Functional Assays: Internalization of Sphingosine-1-Phosphate Receptor 1 (S1P1) in a Human Cell Line (U2OS) in a 384-Well Format Using a Cell Imaging Analysis.
The S1P1 internalization assay was performed in 384 well plates (Corning® 384 black with clear bottom 3712) using S1P1-U2OS cells from BioImage (C039A), a human epithelial cell line (Human Bone Osteosarcoma Epithelial Cells). These cells expressed the human S1P1 Receptor fused to the green fluorescent protein (EGFP). A standard CMV promoter (cytomegalovirus promoter) controls the expression of S1P1-EGFP and continuous expression was maintained by addition of geneticin to the culture medium.
S1P1 Receptor desensitization induced the internalization of the membrane-localized S1P1-EGFP fusion protein to endosomes, which can be monitored by cell imaging analysis.
The cells are plated in low serum medium (Dulbecco's Modified Eagle Medium (DMEM) with Glutamax-1 and high glucose, 1% Penicillin/Streptomycin, 1% Fetal Calf Serum (FCS), 0.5 mg/ml Geneticin) overnight.
The next day, S1P1-U2OS cells are incubated in 20 μl serum free medium (DMEM with Glutamax-1 and high glucose, 0.1% of fatty-acid free Bovin Serum Albumin (BSA), 10 mM, N′-2-Hydroxyethylpiperazine-N′-2 ethanesulphonic acid (HEPES) 1M) for 2 hours at 37° C./5% CO2.
The cells are then treated with 4 μl compounds/agonists (6×/3% DMSO) for a total volume of 24 μl, and plates are incubated for 1 hour at 37° C./5% CO2.
S1P1-U2OS cells are fixed with 25 μl Paraformaldehyde 8% and stained with Hoechst 33345 dye (1:1000) for 20 minutes.
They were then washed 3 times with Phosphate Buffered Saline (PBS) and plates are sealed.
The internalization of the receptor S1P1-EGFP is measured on Cellomics by calculating the “spot count per object” (“object” corresponds to nuclear and “spot” corresponds to S1P1-EGFP receptor). Internalization data were observed thanks to vHCS View and analyzed using Genedata® software.

S1P1 = S1P1 (Homo sapiens, UniProt P21453); experiment: Receptor binding assay, [33P]sphingosine 1-phosphate competition, S1P1
Chain of S1P1 (P21453 whole entry, species assumed): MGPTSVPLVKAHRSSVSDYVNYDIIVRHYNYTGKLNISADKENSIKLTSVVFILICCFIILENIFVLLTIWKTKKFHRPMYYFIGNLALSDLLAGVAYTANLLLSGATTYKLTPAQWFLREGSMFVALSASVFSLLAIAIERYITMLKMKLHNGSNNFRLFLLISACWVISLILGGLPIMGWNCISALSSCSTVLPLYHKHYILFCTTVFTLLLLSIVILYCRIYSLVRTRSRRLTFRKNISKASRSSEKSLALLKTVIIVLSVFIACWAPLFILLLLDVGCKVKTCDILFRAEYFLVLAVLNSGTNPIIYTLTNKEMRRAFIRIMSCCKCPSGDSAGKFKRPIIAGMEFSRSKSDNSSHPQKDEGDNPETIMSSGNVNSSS
Method: (§1) Membranes Preparation: Membranes were prepared from CHO cells expressing S1P1 or S1P3 for use in ligand and 35S-GTPγS binding studies. Cells were suspended in 50 mM TRIS, pH 7.4, 2 mM EDTA, 250 mM Sucrose (buffer A) and 1× Complete protease inhibitor cocktail (Roche), and disrupted at 4° C. by N2 decompression using a cell disruption bomb (Parr Instrument). Following centrifugation at 1000 RPM for 10 min at 4° C., the supernatant was diluted (2×) in buffer A and centrifuged again at 19000 RPM for 75 min at 4° C. The pellet was then suspended in 10 mM HEPES, pH 7.4, 1 mM EDTA, 250 mM Sucrose (Buffer B), and 1× Complete EDTA-free protease inhibitor cocktail and homogenized using a potter. Membranes were flash frozen in liquid N2 and stored at −80° C.
(§2) Receptor binding assay: [33P]sphingosine 1-phosphate (3000 Ci/mmol; American Radiolabeled Chemicals, Inc.) was added to test compounds in 20% DMSO by competition. Membranes and WGA SPA beads (GE Healthcare) were added to give a final volume of 100 μl in 96-well plates or 50 μl in 384-well plates with assay concentrations of 30 pM or 15 pM [33P]sphingosine 1-phosphate (respectively for S1P1 or S1P3), 50 mM HEPES, pH 7.5, 5 mM MgCl2, 100 mM NaCl, 0.4% fatty acid-free BSA, 1-5 μg/well of proteins in 96-well plates vs 0.6-1 μg/well of proteins in 384-well plates and 100 μg/well of WGA SPA beads in 96-well plates vs 75 μg/well of WGA SPA beads in 384-well plates. Binding was performed for 60 min at RT on a shaker and bound radioactivity was measured on a PerkinElmer 1450 MicroBeta counter. Triplicate samples were averaged and normalized as purcentage of inhibition relative to total binding (only DMSO in well) and non specific binding (1000-fold excess of unlabeled S1P). Binding data were analyzed using the GraphPad Prism program or Genedata software.

S1P3 = S1P3 (Homo sapiens, UniProt Q99500); experiment: Receptor binding assay, [33P]sphingosine 1-phosphate competition, S1P3
Chain of S1P3 (Q99500 whole entry, species assumed): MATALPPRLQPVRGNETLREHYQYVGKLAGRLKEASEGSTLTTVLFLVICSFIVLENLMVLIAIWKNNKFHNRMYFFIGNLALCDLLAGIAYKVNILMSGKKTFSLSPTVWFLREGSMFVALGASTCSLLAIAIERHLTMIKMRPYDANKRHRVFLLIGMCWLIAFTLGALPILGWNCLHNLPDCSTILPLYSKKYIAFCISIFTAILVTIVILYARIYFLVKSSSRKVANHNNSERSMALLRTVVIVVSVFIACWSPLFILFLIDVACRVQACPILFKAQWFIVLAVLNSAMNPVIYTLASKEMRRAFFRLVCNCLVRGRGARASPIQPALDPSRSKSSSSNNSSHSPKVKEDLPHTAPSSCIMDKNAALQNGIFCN
Method: as §1, §2

[2] = 96 well-plate, read-out: S1P1 binding IC50 (M) (96 well-plate)
[3] = 384 well-plate, read-out: S1P1 binding IC50 (M) (384 well-plate)
[4] = 384 well-plate, read-out: S1P3 binding IC50 (M) (384 well-plate)
[5] = 96 well-plate, read-out: S1P3 binding IC50 (M) (96 well-plate)

EC50 [1]	IC50 (S1P1; [2])	IC50 (S1P1; [3])	IC50 (S1P3; [4])	IC50 (S1P3; [5])	Compound
84.2 nM	6.72e-09 M	1.72e-08 M			COCc1cc(-c2nc(-c3ccc(NCCCO)nc3)no2)ccc1-c1ccccc1C [Example 41, 3-[(5-{5-[2-(methoxymethyl)-2′-methylbiphenyl-4-yl]-1,2,4-oxadiazol-3-yl}pyridin-2-yl)amino]propan-1-ol]
307 nM	5.49e-08 M				COCc1cc(-c2nc(-c3ccc(Cl)nc3)no2)ccc1-c1ccccc1C [Example 40, 2-chloro-5-{5-[2-(methoxymethyl)-2′-methylbiphenyl-4-yl]-1,2,4-oxadiazol-3-yl}pyridine]
23.3 nM		8.69e-09 M	3.78e-06 M		COCc1cc(-c2nc(-c3cnc(NCCC(=O)O)c(Cl)c3)no2)ccc1-c1cccc(F)c1C [Example 72, N-(3-chloro-5-{5-[3′-fluoro-2-(methoxymethyl)-2′-methylbiphenyl-4-yl]-1,2,4-oxadiazol-3-yl}pyridin-2-yl)-beta-alanine, hydrochloride salt]
16.1 nM	2.07e-09 M	7.95e-09 M	2.41e-06 M	1.6e-06 M	CCOc1cc(-c2nc(-c3cnc(NCCC(=O)O)c(Cl)c3)no2)ccc1-c1ccccc1C [Example 65, N-{3-chloro-5-[5-(2-ethoxy-2′-methylbiphenyl-4-yl)-1,2,4-oxadiazol-3-yl]pyridin-2-yl}-beta-alanine, hydrochloride salt]
33.5 nM	2.44e-09 M	4.1e-08 M		1.12e-05 M	CCc1ccccc1-c1ccc(-c2nc(-c3cnc(N)c(Cl)c3)no2)cc1COC [Example 43, 3-chloro-5-{5-[2′-ethyl-2-(methoxymethyl)biphenyl-4-yl]-1,2,4-oxadiazol-3-yl}pyridin-2-amine]
15.2 nM		9.46e-09 M	2.26e-06 M		Cc1ccccc1-c1ccc(-c2nc(-c3ccnc(CN(C)CC(=O)O)c3)no2)cc1C(F)(F)F [Example 75, 2-(((4-(5-(2-(trifluoromethyl)-2′-methylbiphenyl-4-yl)-1,2,4-oxadiazol-3-yl)pyridin-2-yl)methyl)(methyl)amino)acetic acid]
81.4 nM	5.6e-09 M		8.67e-06 M	7.44e-06 M	COCc1cc(-c2nc(-c3cnc(NCCCC(=O)O)c(C)c3)no2)ccc1-c1ccccc1C [Example 57, 4-[(5-{5-[2-(methoxymethyl)-2′-methylbiphenyl-4-yl]-1,2,4-oxadiazol-3-yl}-3-methylpyridin-2-yl)amino]butanoic acid, hydrochloride salt]
128 nM		4.56e-08 M			COCCCNc1ncc(-c2noc(-c3ccc(-c4ccccc4C)c(COC)c3)n2)cc1Cl [Example 82, 3-chloro-5-(5-(2-(methoxymethyl)-2′-methylbiphenyl-4-yl)-1,2,4-oxadiazol-3-yl)-N-(3-methoxypropyl)pyridin-2-amine]
170 nM		2.5e-08 M			Cc1cc(-c2nc(-c3ccc(CN(C)CC(=O)O)nc3)no2)ccc1-c1ccccc1C(F)(F)F [Example 81, 2-(methyl((5-(5-(2-methyl-2′-(trifluoromethyl)biphenyl-4-yl)-1,2,4-oxadiazol-3-yl)pyridin-2-yl)methyl)amino)acetic acid]
198 nM	5.28e-09 M	9.48e-09 M			Cc1ccccc1-c1ccc(-c2nc(-c3cnc(NCCC(=O)O)c(Cl)c3)no2)cc1C(F)(F)F [Example 61, N-(3-chloro-5-{5-[2′-methyl-2-(trifluoromethyl)biphenyl-4-yl]-1,2,4-oxadiazol-3-yl}pyridin-2-yl)-beta-alanine, hydrochloride salt]
85.3 nM	1.05e-08 M		2e-05 M	1.79e-05 M	COCc1cc(-c2nc(-c3ccc(NCCCCO)nc3)no2)ccc1-c1ccccc1C [Example 51, 4-[(5-{5-[2-(methoxymethyl)-2′-methylbiphenyl-4-yl]-1,2,4-oxadiazol-3-yl}pyridin-2-yl)amino]butan-1-ol, hydrochloride salt]
93.4 nM		1.72e-08 M			Cc1cc(-c2nc(-c3cnc(NCCC(=O)O)c(Cl)c3)no2)ccc1-c1ccccc1C(F)(F)F [Example 70, N-(3-chloro-5-{5-[2-methyl-2′-(trifluoromethyl)biphenyl-4-yl]-1,2,4-oxadiazol-3-yl}pyridin-2-yl)-beta-alanine, hydrochloride salt]
93.6 nM		2.76e-08 M			Cc1cc(-c2nc(-c3ccnc(CN(C)CC(=O)O)c3)no2)ccc1-c1ccccc1C(F)(F)F [Example 80, 2-(methyl((4-(5-(2-methyl-2′-(trifluoromethyl)biphenyl-4-yl)-1,2,4-oxadiazol-3-yl)pyridin-2-yl)methyl)amino)acetic acid]
61.5 nM	3.71e-09 M	2.4e-08 M			COCc1cc(-c2nc(-c3ccc(NCCO)nc3)no2)ccc1-c1ccccc1Cl [Example 49, 2-[(5-{5-[2′-chloro-2-(methoxymethyl)biphenyl-4-yl]-1,2,4-oxadiazol-3-yl}pyridin-2-yl)amino]ethanol]
90.8 nM	3.1e-09 M	7.54e-09 M			COCc1cc(-c2nc(-c3cnc(NCCO)c(Cl)c3)no2)ccc1-c1ccccc1F [Example 62, 2-[(3-chloro-5-{5-[2′-fluoro-2-(methoxymethyl)biphenyl-4-yl]-1,2,4-oxadiazol-3-yl}pyridin-2-yl)amino]ethanol]
56 nM	4.22e-09 M	3.03e-08 M			COCc1cc(-c2nc(-c3ccc(NCC(C)O)nc3)no2)ccc1-c1ccccc1C (centres unmarked) [Example 44, 1-[(5-{5-[2-(methoxymethyl)-2′-methylbiphenyl-4-yl]-1,2,4-oxadiazol-3-yl}pyridin-2-yl)amino]propan-2-ol]
427 nM	1.35e-08 M				COCc1cc(-c2nc(-c3cnc(N[C@H]4CCC[C@H]4C(=O)O)c(Cl)c3)no2)ccc1-c1ccccc1C (relative stereo) [Example 84, cis-2-(3-chloro-5-(5-(2-(methoxymethyl)-2′-methylbiphenyl-4-yl)-1,2,4-oxadiazol-3-yl)pyridin-2-ylamino)cyclopentanecarboxylic acid]
46.7 nM	2.9e-09 M				COCc1cc(-c2nc(-c3cnc(NCCCO)c(Cl)c3)no2)ccc1-c1ccccc1C [Example 83, 3-(3-chloro-5-(5-(2-(methoxymethyl)-2′-methylbiphenyl-4-yl)-1,2,4-oxadiazol-3-yl)pyridin-2-ylamino)propan-1-ol]
47.9 nM	2.89e-09 M				COCc1cc(-c2nc(-c3cnc(N)c(Cl)c3)no2)ccc1N1CCCCC1C (centres unmarked) [Example 42, 3-chloro-5-{5-[3-(methoxymethyl)-4-(2-methylpiperidin-1-yl)phenyl]-1,2,4-oxadiazol-3-yl}pyridin-2-amine]
173 nM		1.47e-08 M			Cc1ccccc1-c1ccc(-c2nc(-c3cnc(NCCC(=O)O)c(Cl)c3)no2)cc1C [Example 73, N-{3-chloro-5-[5-(2,2′-dimethylbiphenyl-4-yl)-1,2,4-oxadiazol-3-yl]pyridin-2-yl}-beta-alanine, hydrochloride salt]
